# Measurements from US11254668B2, “Pyrazolo[1,5-A]pyrazin-4-yl and related derivatives” (Pfizer Inc., priority 2017, dated 2022).
# Where two headings read alike, the source gives them in different places.
# What was measured:
# Format in all cases: biochemical
# JAK3 = JAK3 (Homo sapiens (Human), UniProt P52333); assay: JAK Caliper Enzyme Assay at 1 mM ATP, JAK3
# Procedure, shortened: (§1)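 Recombinant human kinase domains phosphorylate a fluorescent synthetic peptide at 1 mM ATP, room temperature, with enzyme and time tuned for 20-30% conversion; EDTA-stopped. Product/substrate separated by microfluidic mobility shift; percent effect versus DMSO and positive controls fitted to IC50 (nM).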
# JAK2 = JAK2 (Homo sapiens (Human), UniProt O60674); assay: JAK Caliper Enzyme Assay at 1 mM ATP, JAK2
# Procedure, shortened: (§2)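 Read-out is Caliper LabChip mobility-shift separation of phosphorylated from unphosphorylated fluorescent peptide after EDTA termination. Each JAK kinase domain (human, recombinant) runs at 1 mM ATP at room temperature, adjusted for 20–30% turnover. Inhibition is normalized to DMSO and positive-control wells and plotted against concentration.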
# JAK1 = JAK1 (Homo sapiens (Human), UniProt P23458); assay: JAK Caliper Enzyme Assay at 1 mM ATP, JAK1
# Procedure, shortened: as §1
# TYK2 = TYK2 (Homo sapiens (Human), UniProt P29597); assay: JAK Caliper Enzyme Assay at 1 mM ATP, TYK2
# Procedure, shortened: as §2
# Chain of JAK2 (O60674 849-1124): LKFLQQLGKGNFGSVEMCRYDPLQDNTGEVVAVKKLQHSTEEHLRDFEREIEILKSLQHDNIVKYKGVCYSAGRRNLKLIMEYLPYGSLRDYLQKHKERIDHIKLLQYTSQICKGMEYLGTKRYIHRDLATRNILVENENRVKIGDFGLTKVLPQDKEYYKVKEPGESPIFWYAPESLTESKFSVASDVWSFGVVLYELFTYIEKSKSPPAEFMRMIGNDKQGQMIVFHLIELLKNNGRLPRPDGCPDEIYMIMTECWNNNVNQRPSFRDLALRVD
# Chain of JAK1 (P23458 875-1153): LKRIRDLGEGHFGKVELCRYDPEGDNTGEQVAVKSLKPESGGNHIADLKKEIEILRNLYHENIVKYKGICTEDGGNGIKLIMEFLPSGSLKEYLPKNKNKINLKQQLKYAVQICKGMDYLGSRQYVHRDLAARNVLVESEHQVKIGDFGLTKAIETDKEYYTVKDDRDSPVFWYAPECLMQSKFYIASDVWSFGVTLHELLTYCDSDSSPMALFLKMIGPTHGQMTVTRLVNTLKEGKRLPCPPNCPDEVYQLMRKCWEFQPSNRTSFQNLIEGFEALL
# Chain of TYK2 (P29597 897-1176): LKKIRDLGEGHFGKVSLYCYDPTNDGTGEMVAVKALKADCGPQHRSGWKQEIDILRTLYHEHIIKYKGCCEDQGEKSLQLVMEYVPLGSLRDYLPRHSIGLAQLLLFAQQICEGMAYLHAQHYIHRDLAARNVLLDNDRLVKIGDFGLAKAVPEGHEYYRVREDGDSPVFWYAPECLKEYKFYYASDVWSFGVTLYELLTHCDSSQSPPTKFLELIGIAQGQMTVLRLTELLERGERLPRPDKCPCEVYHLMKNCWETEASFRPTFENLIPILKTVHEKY
# Chain of JAK3 (P52333 822-1111): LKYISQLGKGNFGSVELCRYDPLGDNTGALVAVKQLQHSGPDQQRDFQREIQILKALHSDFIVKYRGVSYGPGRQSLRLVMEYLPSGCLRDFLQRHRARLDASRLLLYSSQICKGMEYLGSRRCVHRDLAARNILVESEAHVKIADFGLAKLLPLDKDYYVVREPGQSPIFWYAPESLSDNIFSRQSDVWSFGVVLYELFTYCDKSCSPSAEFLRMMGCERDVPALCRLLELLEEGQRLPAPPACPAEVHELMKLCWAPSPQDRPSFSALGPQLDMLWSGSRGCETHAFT
IC50 (JAK3) [nM],IC50 (JAK2) [nM],IC50 (JAK1) [nM],IC50 (TYK2) [nM],IC50 (JAK3; JAK Caliper enzyme assay) [nM],IC50 (JAK2; JAK Caliper enzyme assay) [nM],IC50 (JAK1; JAK Caliper enzyme assay) [nM],IC50 (TYK2; JAK Caliper enzyme assay) [nM],Compound
> 10000,> 10000,> 10000,7680,–,–,–,–,"N#CCC1(n2ccc(-c3nccc4ncccc34)n2)CN(CC(F)(F)F)C1 [Example 15, {3-[3-(1,6-naphthyridin-5-yl)-1H-pyrazol-1-yl]-1-(2,2,2-trifluoroethyl)azetidin-3-yl}acetonitrile]"
> 10000,556,3400,158,–,–,–,–,"CNc1cc(-c2cc3ncccc3c(-c3ccn([C@]4(CC#N)C[C@H](C#N)C4)n3)n2)nn1C [Example 69, cis-3-(cyanomethyl)-3-(3-{7-[1-methyl-5-(methylamino)-1H-pyrazol-3-yl]-,6-naphthyridin-5-yl}-1H-pyrazol-1-yl)cyclobutanecarbonitrile]"
–,–,–,–,> 10000,924,9320,128,"CS(=O)(=O)N1CC(CC#N)(n2ncc(-c3cc(-c4ccc(CN)cc4)cc4ncccc34)n2)C1 [Example 428, [3-(4-{7-[4-(aminomethyl)phenyl]quinolin-5-yl}-2H-1,2,3-triazol-2-yl)-1-(methylsulfonyl)azetidin-3-yl]acetonitrile]"
> 10000,71,425,14,–,–,–,–,"Cn1cc(-c2cc3ncccc3c(-c3ccn(C4(CC#N)CN(CC#N)C4)n3)n2)cn1 [Example 100, 2,2′-(3-{3-[7-(1-methyl-1H-pyrazol-4-yl)-1,6-naphthyridin-5-yl]-1H-pyrazol-1-yl}azetidine-1,3-diyl)diacetonitrile]"
2880,18,66,7,–,–,–,–,"Cc1cc(-c2cc3ncccc3c(-c3ccn([C@]4(CC#N)C[C@H](C#N)C4)n3)n2)n[nH]1 [Example 44, cis-3-(cyanomethyl)-3-{3-[7-(5-methyl-1H-pyrazol-3-yl)-1,6-naphthyridin-5-yl]-1H-pyrazol-1-yl}cyclobutanecarbonitrile]"
–,–,–,–,> 10000,1040,1900,204,"N#CC[C@]1(n2ncc(-c3cc(-c4cnc(N)cn4)cc4ncccc34)n2)C[C@@H](C#N)C1 [Example 398, cis-3-{4-[7-(5-aminopyrazin-2-yl)quinolin-5-yl]-2H-1,2,3-triazol-2-yl}-3-(cyanomethyl)cyclobutanecarbonitrile]"
> 10000,9570,> 10000,1390,–,–,–,–,"CCN1CC(CC#N)(n2ccc(-c3nc(C4=CCOCC4)cc4ncccc34)n2)C1 [Example 263, (3-{3-[7-(3,6-dihydro-2H-pyran-4-yl)-1,6-naphthyridin-5-yl]-1H-pyrazol-1-yl}-1-ethylazetidin-3-yl)acetonitrile]"
2730,48,122,8,–,–,–,–,"N#CC[C@]1(n2ncc(-c3cc(-c4cn[nH]c4)cc4ncccc34)n2)C[C@@H](C#N)C1 [Example 316, cis-3-(cyanomethyl)-3-{4-[7-(1H-pyrazol-4-yl)quinolin-5-yl]-2H-1,2,3-triazol-2-yl}cyclobutanecarbonitrile]"
> 10000,71,653,36,–,–,–,–,"Cn1cc(-c2cc(-c3cnn(C4(CC#N)CN(CC#N)C4)c3)c3cccnc3c2)cn1 [Example 292, 2,2′-(3-{4-[7-(1-methyl-1H-pyrazol-4-yl)quinolin-5-yl]-1H-pyrazol-1-yl}azetidine-1,3-diyl)diacetonitrile]"
–,–,–,–,> 10000,748,2520,99,"N#CCC1(n2ncc(-c3cc(-c4ccc(C(N)=O)cc4)cc4ncccc34)n2)CC(C#N)C1 (stereo not drawn) [Example 434, 4-(5-{2-[trans-3-cyano-1-(cyanomethyl)cyclobutyl]-2H-1,2,3-triazol-4-yl}quinolin-7-yl)benzamide]"
> 10000,2300,> 10000,675,–,–,–,–,"Cc1cn([C@]2(CC#N)C[C@H](C#N)C2)nc1-c1nc(-c2cc(N)n(C)n2)cc2ncccc12 [Example 277, cis-3-{3-[7-(5-amino-1-methyl-1H-pyrazol-3-yl)-1,6-naphthyridin-5-yl]-4-methyl-1H-pyrazol-1-yl}-3-(cyanomethyl)cyclobutanecarbonitrile]"
–,–,–,–,> 10000,964,4730,101,"CS(=O)(=O)N1CC(CC#N)(n2ncc(-c3cc(-c4ccc(F)c(CO)c4)cc4ncccc34)n2)C1 [Example 446, [3-(4-{7-[4-fluoro-3-(hydroxymethyl)phenyl]quinolin-5-yl}-2H-1,2,3-triazol-2-yl)-1-(methylsulfonyl)azetidin-3-yl]acetonitrile]"
> 10000,199,337,20,–,–,–,–,"N#CCC1(n2ccc(-c3nc(-c4ccnc(N)c4)cc4ncccc34)n2)CC(C#N)C1 (stereo not drawn) [Example 199, trans-3-{3-[7-(2-aminopyridin-4-yl)-1,6-naphthyridin-5-yl]-1H-pyrazol-1-yl}-3-(cyanomethyl)cyclobutanecarbonitrile]"
> 10000,2100,2300,214,–,–,–,–,"Cn1nccc1-c1cc2ncccc2c(-c2ccn(C3(CC#N)CN(CC(F)(F)F)C3)n2)n1 [Example 54, [3-{3-[7-(1-methyl-1H-pyrazol-5-yl)-1,6-naphthyridin-5-yl]-1H-pyrazol-1-yl}-1-(2,2,2-trifluoroethyl)azetidin-3-yl]acetonitrile]"
–,–,–,–,> 10000,805,6430,139,"N#CC[C@]1(n2ncc(-c3cc(-c4ccc(OCCN)cc4)cc4ncccc34)n2)C[C@H](C#N)C1 [Example 440, trans-3-(4-{7-[4-(2-aminoethoxy)phenyl]quinolin-5-yl}-2H-1,2,3-triazol-2-yl)-3-(cyanomethyl)cyclobutanecarbonitrile]"
> 10000,> 10000,> 10000,255,–,–,–,–,"CS(=O)(=O)N1CC(CC#N)(n2ccc(-c3nc(-c4ccccc4F)cc4ncccc34)n2)C1 [Example 258, [3-{3-[7-(2-fluorophenyl)-1,6-naphthyridin-5-yl]-1H-pyrazol-1-yl}-1-(methylsulfonyl)azetidin-3-yl]acetonitrile]"
> 10000,2980,8190,81,–,–,–,–,"Cc1cc(-c2cc(-c3cc[nH]n3)cc3ncccc23)nn1C1(CC#N)CN(S(C)(=O)=O)C1 [Example 293, [3-{5-methyl-3-[7-(1H-pyrazol-3-yl)quinolin-5-yl]-1H-pyrazol-1-yl}-1-(methylsulfonyl)azetidin-3-yl]acetonitrile]"
> 10000,235,379,19,–,–,–,–,"CO[C@H]1C[C@@](CC#N)(n2ccc(-c3nc(-c4cc(N)[nH]n4)cc4ncccc34)n2)C1 [Example 52, (cis-1-{3-[7-(5-amino-1H-pyrazol-3-yl)-1,6-naphthyridin-5-yl]-1H-pyrazol-1-yl}-3-methoxycyclobutyl)acetonitrile]"
> 10000,598,534,41,–,–,–,–,"N#CCC1(n2ncc(-c3cc(-c4cc[nH]n4)cc4ncccc34)n2)CN(CC(F)(F)F)C1 [Example 296, [3-{4-[7-(1H-pyrazol-3-yl)quinolin-5-yl]-2H-1,2,3-triazol-2-yl}-1-(2,2,2-trifluoroethyl)azetidin-3-yl]acetonitrile]"
9910,188,175,26,–,–,–,–,"N#CCC1(n2ccc(-c3nc(-c4ccn[nH]4)cc4ncccc34)n2)CN(S(=O)(=O)C2COC2)C1 [Example 19, [1-(oxetan-3-ylsulfonyl)-3-{3-[7-(1H-pyrazol-5-yl)-1,6-naphthyridin-5-yl]-1H-pyrazol-1-yl}azetidin-3-yl]acetonitrile]"
> 10000,688,656,37,–,–,–,–,N#CCC1(n2ccc(-c3nc(-c4ccnc(N)c4)cc4ncccc34)n2)CN(CC(F)(F)F)C1 [Example 197]
–,–,–,–,> 10000,50,1000,24,"CN1C(=O)COc2ccc(-c3cc(-c4cnn([C@]5(CC#N)C[C@@H](C#N)C5)n4)c4cccnc4c3)nc21 [Example 426, trans-3-(cyanomethyl)-3-{4-[7-(4-methyl-3-oxo-3,4-dihydro-2H-pyrido[3,2-b][1,4]oxazin-6-yl)quinolin-5-yl]-2H-1,2,3-triazol-2-yl}cyclobutanecarbonitrile]"
> 10000,99,400,26,–,–,–,–,"N#CC[C@]1(n2ccc(-c3nc(-c4cc(CO)no4)cc4ncccc34)n2)C[C@@H](C#N)C1 [Example 146, cis-3-(cyanomethyl)-3-(3-{7-[3-(hydroxymethyl)-1,2-oxazol-5-yl]-1,6-naphthyridin-5-yl}-1H-pyrazol-1-yl)cyclobutanecarbonitrile]"
> 10000,9440,> 10000,1390,–,–,–,–,"CS(=O)(=O)N1CC(CC#N)(n2ccc(-c3nc(-c4cnc5nccn5c4)cc4ncccc34)n2)C1 [Example 165, [3-{3-[7-(imidazo[1,2-a]pyrimidin-6-yl)-1,6-naphthyridin-5-yl]-1H-pyrazol-1-yl}-1-(methylsulfonyl)azetidin-3-yl]acetonitrile]"

Compound,IC50 (JAK3) [nM],IC50 (JAK2) [nM],IC50 (JAK1) [nM],IC50 (TYK2) [nM],IC50 (JAK3; JAK Caliper enzyme assay) [nM],IC50 (JAK2; JAK Caliper enzyme assay) [nM],IC50 (JAK1; JAK Caliper enzyme assay) [nM],IC50 (TYK2; JAK Caliper enzyme assay) [nM]
"N#CC[C@]1(n2ccc(-c3nc(-c4cccc(C(N)=O)n4)cc4ncccc34)n2)C[C@H](C#N)C1 [Example 214, 6-(5-{1-[cis-3-cyano-1-(cyanomethyl)cyclobutyl]-1H-pyrazol-3-yl}-1,6-naphthyridin-7-yl)pyridine-2-carboxamide]",> 10000,471,2020,53,–,–,–,–
